Assay results published in US6727244B2, “Mammalian metabolites of a tachykinin receptor antagonist” (Merck & Co., Inc., priority 2000, dated 2004).

Experiment: metabolism in primary cultures of rat hepatocytes
Format: in vitro ADME
Settings: after 6 hr
Protocol: Hepatocytes were harvested from male Sprague-Dawley rat livers or human livers and cultured on a matrigel support and treated with 0.1 μM dexamethasone or 50 μM rifampicin, respectively, for 48 hr prior to the addition of the test compounds. A 2.5 mM stock solution of [^14C]2-(R)-(1-(R)-(3,5-bis(trifluoromethyl)-phenyl)ethoxy)-3-(S)-(4-fluoro)phenyl-4-(3-(5-oxo-1H,4H-1,2,4-triazolo)methylmorpholine, [^14C]M-1 or [^14C]M-2 in DMSO was added to the plates such that the final concentration of test compound was 25 μM and DMSO was 1% (v/v). The cultures were incubated for 4, 6 or 24 hr for rat hepatocytes and 48 hr for human hepatocytes. The incubation mixtures (500 μL) contained 10 μM of test compound, 100 mM phosphate buffer pH 7.4, NADPH-regenerating system, microsomes containing expressed CYP isoforms (CYP1A2, CYP2A6, CYP2B6, CYP2C8, CYP2C9, CYP2C19, CYP2D6, CYP2E1 or CYP3A4) and cytochrome P-450 reductase. The reactions were initiated by adding NADP and proceeded at 37° C. for 15-45 min. […]
Method A was conducted on a Shimadzu HPLC system (Shimadzu Scientific Instruments Inc., Columbia Md.). The parent compounds and their metabolites were monitored directly using a radiometric detector (INUS Systems Inc. Tampa, Fla.) and Ultima-Flow M (Packard Instrument Co., Meridan Conn.) as scintillant at a flow rate of 3 mL/min. […]

metabolism in rat hepatocyte cultures: extensively metabolized
SMILES: C[C@@H](O[C@H]1OCCN[C@H]1c1ccc(F)cc1)c1cc(C(F)(F)F)cc(C(F)(F)F)c1 [Metabolite M-1, (2R,3S)-2-[(1R)-1-[3,5-bis(trifluoromethyl)phenyl]ethoxy]-3-(4-fluorophenyl)morpholine]
